# Measurements as given in patent US9133128B2, “Pyrazole derivatives as cannabinoid receptor 1 antagonists” (Research Triangle Institute, priority 2011, dated 2015).
# Like-named read-outs stand apart in the source and are kept apart here.
# Legend:
# CB1 [1] = biological target: T1, CB1 (Homo sapiens, UniProt P21554); assay: CB1 activated Gαq16-coupled intracellular calcium mobilization assay in CHO-K1 cells (apparent affinity Ke); type: cell-based; details: calcium mobilization
# T1 construct: expressed in transfected cells; host or cells: CHO-K1 (membranes)
# CB2 = biological target: T2, CB2 (Homo sapiens, UniProt P34972); assay: Displacement of [3H]CP55940 in membranes of CHO-K1 cells over-expressing CB2; type: binding
# T2 construct: expressed in transfected cells; host or cells: CHO-K1 (membranes)
# Protocol: All compounds were characterized by H^1 NMR and evaluated using a calcium mobilization assay. Each compound was pharmacologically characterized using a functional fluorescent CB1 activated Gαq16-coupled intracellular calcium mobilization assay in CHO-K1 cells as has been previously described and apparent affinity (Ke) values were determined. See Zhang et al., J. Med. Chem. 2010, 53, 7048, which is incorporated herein by reference. Further characterization of select compounds was performed using radioligand displacement of [3H]1 and equilibrium dissociation constant (Ki) values were determined. Selectivity of these compounds at CB1 versus CB2 was also determined by obtaining Ki values at either receptor using displacement of [3H]CP55940 in membranes of CHO-K1 cells over-expressing either receptor. Data reported are average values from 3-6 measurements.
# Select compounds were chosen for further study in radioligand displacement assays using radiolabeled rimonobant, SR141716 ([^3H]1). […] Selectivity against the CB2 receptor was determined by comparing the compound displacement of radiolabeled CP55940, which is a cannabinoid known to act as a full agonist at both CB1 and CB2 receptors. In general, tested compounds were selective for CB1 over CB2.
# CB1 [2] = biological target: T1, CB1; assay: Displacement of [3H]CP55940 in membranes of CHO-K1 cells over-expressing CB1; type: binding; details: for Binding Selectivity using CP55940 Displacement: CB2 Ki over CB1 Ki; for Ki: read-out: Ki (nM) v. [3H] CP55940 at CB1
# [3] = Table 5, read-out: Ke (nM) at CB1
# [4] = Table 2, apparent affinity, read-out: Ke CB1
# [5] = Table 4, read-out: Ke (nM) at CB1
# [6] = Table 4, read-out: Ki (nM) v. [3H] CP55940 at CB2
# [7] = Table 5, read-out: Ki (nM) v. [3H] CP55940 at CB2
# T1 sequence (P21554 whole entry): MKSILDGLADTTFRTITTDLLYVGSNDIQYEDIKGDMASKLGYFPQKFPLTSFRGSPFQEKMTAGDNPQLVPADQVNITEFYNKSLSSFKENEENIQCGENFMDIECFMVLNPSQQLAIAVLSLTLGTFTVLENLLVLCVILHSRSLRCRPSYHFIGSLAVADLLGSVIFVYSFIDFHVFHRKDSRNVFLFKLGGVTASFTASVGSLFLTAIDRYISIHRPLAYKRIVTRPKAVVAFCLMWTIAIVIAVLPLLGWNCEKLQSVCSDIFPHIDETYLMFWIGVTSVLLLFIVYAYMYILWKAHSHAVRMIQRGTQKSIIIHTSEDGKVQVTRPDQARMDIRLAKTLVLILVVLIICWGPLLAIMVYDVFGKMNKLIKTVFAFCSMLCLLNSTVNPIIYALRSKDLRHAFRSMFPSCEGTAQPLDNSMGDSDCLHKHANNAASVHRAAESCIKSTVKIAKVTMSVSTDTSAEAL
# T2 sequence (P34972 whole entry): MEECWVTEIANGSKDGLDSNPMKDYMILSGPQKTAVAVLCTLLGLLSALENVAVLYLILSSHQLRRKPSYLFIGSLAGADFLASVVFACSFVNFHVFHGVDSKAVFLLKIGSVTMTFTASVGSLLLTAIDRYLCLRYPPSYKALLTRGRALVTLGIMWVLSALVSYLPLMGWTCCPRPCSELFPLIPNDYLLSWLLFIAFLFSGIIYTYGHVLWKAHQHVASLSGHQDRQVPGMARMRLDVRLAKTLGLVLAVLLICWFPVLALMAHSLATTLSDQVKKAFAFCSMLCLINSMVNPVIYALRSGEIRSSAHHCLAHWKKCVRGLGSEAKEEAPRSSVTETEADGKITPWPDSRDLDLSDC
compound,measurement,setting,value
"4-C-5-(4-Chlorophenyl)-1-(2,4-dichlorophenyl)-4-methyl-1H-pyrazole-3-1-N-propylpiperidine-1,4-diamido [NH(n-propyl)]",Kb,CB1 [1]; [3],66.5 nM
Cc1c(C(=O)NCC2CCC(CNS(N)(=O)=O)CC2)nn(-c2ccc(Cl)cc2Cl)c1-c1ccc(Cl)cc1 (mixture of isomers),Ki,"CB2; Table 3, radioligand [3H]CP55940, read-out: Ki(μM) CB2 CP55940",1.79 µM
"Cc1c(C(=O)NCc2cccc(CNS(N)(=O)=O)c2)nn(-c2ccc(Cl)cc2Cl)c1-c1ccc(Cl)cc1 [5-(4-chlorophenyl)-1-(2,4-dichlorophenyl)-4-methyl-N-({3-[(sulfamoylamino)methyl]phenyl}methyl)-1H-pyrazole-3-carboxamide]",Kb,CB1 [1]; [4],4200 nM
"Cc1c(C(=O)NCc2ccc(CNS(N)(=O)=O)cc2)nn(-c2ccc(Cl)cc2Cl)c1-c1ccc(Cl)cc1 [5-(4-chlorophenyl)-1-(2,4-dichlorophenyl)-4-methyl-N-({4-[(sulfamoylamino)methyl]phenyl}methyl)-1H-pyrazole-3-carboxamide]",Kb,CB1 [1]; [4],376 nM
"Cc1c(C(=O)NCCCCCCCNS(N)(=O)=O)nn(-c2ccc(Cl)cc2Cl)c1-c1ccc(Cl)cc1 [5-(4-chlorophenyl)-1-(2,4-dichlorophenyl)-4-methyl-N-[7-(sulfamoylamino)heptyl]-1H-pyrazole-3-carboxamide]",Kb,CB1 [1]; [4],304 nM
"Cc1c(C(=O)N[C@H]2CC[C@H](NS(N)(=O)=O)CC2)nn(-c2ccc(Cl)cc2Cl)c1-c1ccc(Cl)cc1 [5-(4-chlorophenyl)-1-(2,4-dichlorophenyl)-4-methyl-N-[(1r,4r)-4-(sulfamoylamino)cyclohexyl]-1H-pyrazole-3-carboxamide]",Kb,CB1 [1]; [4],9430 nM
"Cc1c(C(=O)N[C@H]2CC[C@H](NS(C)(=O)=O)CC2)nn(-c2ccc(Cl)cc2Cl)c1-c1ccc(Cl)cc1 [5-(4-chlorophenyl)-1-(2,4-dichlorophenyl)-4-methyl-N-[(1r,4r)-4-methanesulfonamido-cyclohexyl]-1H-pyrazole-3-carboxamide]",Kb,CB1 [1]; [4],>10000 nM
"Cc1c(C(=O)NCCCN(C)CCCNS(C)(=O)=O)nn(-c2ccc(Cl)cc2Cl)c1-c1ccc(Cl)cc1 [5-(4-chlorophenyl)-1-(2,4-dichlorophenyl)-N-{3-[(3-methanesulfonamidopropyl)(methyl)amino]propyl}-4-methyl-1H-pyrazole-3-carboxamide]",Kb,CB1 [1]; [4],5340 nM
"Cc1c(C(=O)NCc2cccc(CNS(C)(=O)=O)c2)nn(-c2ccc(Cl)cc2Cl)c1-c1ccc(Cl)cc1 [5-(4-chlorophenyl)-1-(2,4-dichlorophenyl)-N-{[3-(methanesulfonamidomethyl)phenyl]methyl}-4-methyl-1H-pyrazole-3-carboxamide]",Kb,CB1 [1]; [4],2830 nM
"Cc1c(C(=O)NCc2ccc(CNS(C)(=O)=O)cc2)nn(-c2ccc(Cl)cc2Cl)c1-c1ccc(Cl)cc1 [5-(4-chlorophenyl)-1-(2,4-dichlorophenyl)-N-{[4-(methanesulfonamidomethyl)phenyl]methyl}-4-methyl-1H-pyrazole-3-carboxamide]",Kb,CB1 [1]; [4],2930 nM
"Cc1c(C(=O)N2CCC(O)(c3ccccc3)CC2)nn(-c2ccc(Cl)cc2Cl)c1-c1ccc(C#N)cc1 [CN, phenyl, OH, 4-[1-(2,4-dichlorophenyl)-3-[(4-hydroxy-4-phenylpiperidin-1-yl)carbonyl]-4-methyl-1H-pyrazol-5-yl]benzonitrile]",Kb,CB1 [1]; [5],907 nM
"Cc1c(C(=O)N2CCC(N)CC2)nn(-c2ccc(Cl)cc2Cl)c1-c1ccc(Cl)cc1 [Cl, H, NH2, 1-{[5-(4-Chlorophenyl)-1-(2,4-dichlorophenyl)-4-methyl-1H-pyrazol-3-yl]carbonyl}piperidin-4-amine]",Kb,CB1 [1]; [5],1920 nM
"CCCNC(=O)NC1CCN(C(=O)c2nn(-c3ccc(Cl)cc3Cl)c(-c3ccc(Cl)cc3)c2C)CC1 [Cl, H, NHC(O)NHC3H7, 1-(1-{[5-(4-Chlorophenyl)-1-(2,4-dichlorophenyl)-4-methyl-1H-pyrazol-3-yl]carbonyl}piperidin-4-yl)-3-propylurea]",Kb,CB1 [1]; [5],546 nM
"CCCCNC(=O)NC1CCN(C(=O)c2nn(-c3ccc(Cl)cc3Cl)c(-c3ccc(Cl)cc3)c2C)CC1 [Cl, H, NHC(O)NHC4H9, 3-Butyl-1-(1-{[5-(4-chlorophenyl)-1-(2,4-dichlorophenyl)-4-methyl-1H-pyrazol-3-yl]carbonyl}piperidin-4-yl)urea]",Kb,CB1 [1]; [5],395 nM
"Cc1c(C(=O)N2CCC(NC(=O)NC(C)C)CC2)nn(-c2ccc(Cl)cc2Cl)c1-c1ccc(Cl)cc1 [Cl, H, NHC(O)NHCH(CH3)2, 1-(1-{[5-(4-Chlorophenyl)-1-(2,4-dichlorophenyl)-4-methyl-1H-pyrazol-3-yl]carbonyl}piperidin-4-yl)-3-(propan-2-yl)urea]",Kb,CB1 [1]; [5],608 nM
"Cc1c(C(=O)N2CCC(NC(=O)OC(C)(C)C)CC2)nn(-c2ccc(Cl)cc2Cl)c1-c1ccc(Cl)cc1 [Cl, H, NHC(O)O(t-butyl), tert-Butyl N-(1-{[5-(4-chlorophenyl)-1-(2,4-dichlorophenyl)-4-methyl-1H-pyrazol-3-yl]carbonyl}piperidin-4-yl)carbamate]",Kb,CB1 [1]; [5],209 nM
"Cc1c(C(=O)N2CCC(NS(C)(=O)=O)CC2)nn(-c2ccc(Cl)cc2Cl)c1-c1ccc(Cl)cc1 [Cl, H, NHS(O)2CH3, N-(1-{[5-(4-Chlorophenyl)-1-(2,4-dichlorophenyl)-4-methyl-1H-pyrazol-3-yl]carbonyl}piperidin-4-yl)methanesulfonamide]",Kb,CB1 [1]; [5],146 nM
"CCCCCCNC(=O)NC1(c2ccccc2)CCN(C(=O)c2nn(-c3ccc(Cl)cc3Cl)c(-c3ccc(Cl)cc3)c2C)CC1 [Cl, phenyl, NHC(O)NH(C6H13), 1-(1-{[5-(4-chlorophenyl)-1-(2,4-dichlorophenyl)-4-methyl-1H-pyrazol-3-yl]carbonyl}-4-phenylpiperidin-4-yl)-3-hexylurea]",Binding Selectivity using CP55940 Displacement,CB1 [2]; Table 4,62.2
same,Ki,CB1 [2]; Table 4,38.8 nM
same,Ki,CB2; [6],2.41 µM
"Cc1c(C(=O)N2CCC(NC(=O)NC3CCCCC3)(c3ccccc3)CC2)nn(-c2ccc(Cl)cc2Cl)c1-c1ccc(Cl)cc1 [Cl, phenyl, NHC(O)NH(cyclohexyl), 3-(1-{[5-(4-chlorophenyl)-1-(2,4-dichlorophenyl)-4-methyl-1H-pyrazol-3-yl]carbonyl}-4-phenylpiperidin-4-yl)-1-cyclohexylurea]",Binding Selectivity using CP55940 Displacement,CB1 [2]; Table 4,25.3
same,Ki,CB1 [2]; Table 4,792 nM
same,Ki,CB2; [6],≥ 20 µM
"CCCNC(=O)NC1(c2ccccc2)CCN(C(=O)c2nn(-c3ccc(Cl)cc3Cl)c(-c3ccc(Cl)cc3)c2C)CC1 [Cl, phenyl, NHC(O)NHC3H7, 1-(1-{[5-(4-chlorophenyl)-1-(2,4-dichlorophenyl)-4-methyl-1H-pyrazol-3-yl]carbonyl}-4-phenylpiperidin-4-yl)-3-propylurea]",Binding Selectivity using CP55940 Displacement,CB1 [2]; Table 4,38.7
same,Ki,CB1 [2]; Table 4,7.57 nM
same,Ki,CB2; [6],0.293 µM
"CCNC(=O)NC1(c2ccccc2)CCN(C(=O)c2nn(-c3ccc(Cl)cc3Cl)c(-c3ccc(Cl)cc3)c2C)CC1 [Cl, phenyl, NHC(O)NHCH2CH3, 1-(1-{[5-(4-chlorophenyl)-1-(2,4-dichlorophenyl)-4-methyl-1H-pyrazol-3-yl]carbonyl}-4-phenylpiperidin-4-yl)-3-ethylurea]",Binding Selectivity using CP55940 Displacement,CB1 [2]; Table 4,12.1
same,Ki,CB1 [2]; Table 4,15 nM
same,Ki,CB2; [6],0.182 µM
"Cc1c(C(=O)NC2CCN(C(N)=O)CC2)nn(-c2ccc(Cl)cc2Cl)c1-c1ccc(Cl)cc1 [NH2, 4-C-5-(4-chlorophenyl)-1-(2,4-dichlorophenyl)-4-methyl-1H-pyrazole-3-piperidine-1,4-diamido]",Kb,CB1 [1]; [3],4100 nM
"Cc1c(C(=O)NC2CCN(C(=O)NC(C)C)CC2)nn(-c2ccc(Cl)cc2Cl)c1-c1ccc(Cl)cc1 [NH(isopropyl), 4-C-5-(4-Chlorophenyl)-1-(2,4-dichlorophenyl)-4-methyl-1H-pyrazole-3-1-N-(propan-2-yl)piperidine-1,4-diamido]",Binding Selectivity using CP55940 Displacement,CB1 [2]; Table 5,175.7
same,Ki,CB1 [2]; Table 5,97.9 nM
same,Ki,CB2; [7],17.2 µM
"CCCCNC(=O)N1CCC(NC(=O)c2nn(-c3ccc(Cl)cc3Cl)c(-c3ccc(Cl)cc3)c2C)CC1 [NH(n-butyl), 1-N-Butyl-4-C-5-(4-chlorophenyl)-1-(2,4-dichlorophenyl)-4-methyl-1H-pyrazole-3-piperidine-1,4-diamido]",Ki,CB1 [2]; Table 5,149 nM
same,Ki,CB2; [7],> 20 µM
"CCNC(=O)N1CCC(NC(=O)c2nn(-c3ccc(Cl)cc3Cl)c(-c3ccc(Cl)cc3)c2C)CC1 [NHC2H5, 4-C-5-(4-chlorophenyl)-1-(2,4-dichlorophenyl)-4-methyl-1H-pyrazole-3-1-N-ethylpiperidine-1,4-diamido]",Binding Selectivity using CP55940 Displacement,CB1 [2]; Table 5,79.0
same,Ki,CB1 [2]; Table 5,167 nM
same,Ki,CB2; [7],13.2 µM
"CCCCOC(=O)N1CCC(NC(=O)c2nn(-c3ccc(Cl)cc3Cl)c(-c3ccc(Cl)cc3)c2C)CC1 [OC4H9, Butyl 4-[5-(4-chlorophenyl)-1-(2,4-dichlorophenyl)-4-methyl-1H-pyrazole-3-amido]piperidine-1-carboxylate]",Kb,CB1 [1]; [3],88 nM
